Source: ChEMBL document CHEMBL5096208, “Installation of Pargyline, a LSD1 Inhibitor, in the HDAC Inhibitory Template Culminated in the Identification of a Tractable Antiprostate Cancer Agent” (J Med Chem, 2021)
Calls of active or inactive are those of the source. The calls are words filed in the database; no cut-off is given here.

Legend:
[1] = tested on: PC-3; test: Antiproliferative activity against human PC-3 cells assessed as cell growth inhibition at upto 10 uM incubated for 48 hrs by MTT assay; format: functional, cell-based
[2] = molecular target: T1, Polyamine deacetylase HDAC10 (Homo sapiens, UniProt Q969S8); test: Inhibition of human HDAC10 using Ac-Spermidine-AMC as flurogenic substrate
T1 sequence (Q969S8 whole entry): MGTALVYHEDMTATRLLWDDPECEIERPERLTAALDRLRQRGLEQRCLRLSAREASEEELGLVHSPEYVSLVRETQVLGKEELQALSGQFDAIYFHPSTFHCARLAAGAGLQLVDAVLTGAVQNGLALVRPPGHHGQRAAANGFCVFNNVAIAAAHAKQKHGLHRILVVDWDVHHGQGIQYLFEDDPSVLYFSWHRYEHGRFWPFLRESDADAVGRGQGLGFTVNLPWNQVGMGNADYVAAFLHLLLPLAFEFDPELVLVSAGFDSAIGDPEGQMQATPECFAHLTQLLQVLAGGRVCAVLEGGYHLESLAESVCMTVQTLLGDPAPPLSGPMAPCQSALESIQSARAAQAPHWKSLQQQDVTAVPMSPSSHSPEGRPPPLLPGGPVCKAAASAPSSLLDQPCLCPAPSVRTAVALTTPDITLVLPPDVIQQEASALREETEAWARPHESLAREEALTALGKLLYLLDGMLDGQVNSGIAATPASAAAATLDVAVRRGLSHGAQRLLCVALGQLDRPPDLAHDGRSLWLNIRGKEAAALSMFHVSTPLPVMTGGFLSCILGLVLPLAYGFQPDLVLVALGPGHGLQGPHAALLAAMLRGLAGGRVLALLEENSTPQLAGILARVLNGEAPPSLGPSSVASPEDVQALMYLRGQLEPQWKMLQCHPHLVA

[3] = Tmax in Sprague-Dawley rat at 25 mg/kg, po administered once via gavage measured upto 24 hrs post dose by UPLC-MS/MS analysis; format: ADME, organism-based; details: in vivo

## C#CCN(C)Cc1cccc(NC(=O)CCCCCCC(=O)NO)c1
[1]
  Activity: Active
[2]
  IC50: 374 nM
[3]
  Tmax: 30 min
